From PubChem BioAssay (NCI)
Values joined by “and” are separate entries in the source; they are usually repeats but may differ in a detail not shown here. Equal values may be shown once.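 Growth conditions: 96-well plates. Treatment: test compound, 48 hours, 5 concentrations. Analysis: linear interpolation between bracketing concentrations; unreached endpoints set to highest concentration. Here, GI50 denotes the concentration required for 50% inhibition of growth. TGI denotes the concentration required for complete inhibition of growth.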

Experiments:
Assay in all cases: growth of human tumour cells (NCI), 48 h
SK-MEL-28 melanoma = test system: SK-MEL-28 melanoma
SF-268 CNS = test system: SF-268 CNS
K-562 leukemia = test system: K-562 leukemia
NCI-H23 lung = test system: NCI-H23 lung
RXF 393 renal = test system: RXF 393 renal
SR leukemia = test system: SR leukemia
HCT-116 colon = test system: HCT-116 colon
MCF7 breast = test system: MCF7 breast
MDA-N = test system: MDA-N
SNB-19 CNS = test system: SNB-19 CNS

Structure (SMILES) | TGI (SK-MEL-28 melanoma) | TGI (SF-268 CNS) | TGI (K-562 leukemia) | TGI (NCI-H23 lung) | TGI (RXF 393 renal) | TGI (SR leukemia) | TGI (HCT-116 colon) | TGI (MCF7 breast) | TGI (MDA-N) | TGI (SNB-19 CNS) | GI50 (SF-268 CNS) | GI50 (SNB-19 CNS) | GI50 (NCI-H23 lung) | GI50 (RXF 393 renal) | GI50 (MCF7 breast) | GI50 (MDA-N)
O=C(Cc1nc2ccc(C(=O)c3ccccc3)cc2[nH]c1=O)C(=O)Nc1ccccc1[N+](=O)[O-] | > 100 µM | > 100 µM | > 100 µM | > 100 µM | > 100 µM | > 100 µM | > 100 µM | > 100 µM | > 100 µM | – | – | – | – | – | – | –
CC(=O)N[C@@H](Cc1ccc(O)cn1)C(=O)NCc1ccc2c(c1)OCO2 | > 100 µM | > 100 µM | > 100 µM | > 100 µM | > 100 µM | > 100 µM | > 100 µM | > 100 µM | > 100 µM | > 100 µM | – | – | – | – | – | –
O=C(Nc1cccc2nsnc12)c1cc2c(cc1Cl)Sc1nccn1S2(=O)=O | 8.86 µM | 20.4 µM | > 44.5 µM | 25.3 µM | 18 µM | > 21.8 µM | 6.97 µM | 3.4 µM | 34.3 µM | 24.8 µM | – | – | – | – | – | –
c1ccc2c3c(ccc2c1)CSCc1ccc2ccccc2c1-3 | > 100 µM | > 100 µM | > 100 µM | > 100 µM | > 100 µM | > 100 µM | > 100 µM | > 100 µM | > 100 µM | > 100 µM | – | – | – | – | – | –
Cc1ncc([N+](=O)[O-])n1CCN=[N+]=[N-] | > 100 µM | > 100 µM | > 100 µM | > 100 µM | > 100 µM | > 100 µM | > 100 µM | > 100 µM | > 100 µM | > 100 µM | – | – | – | – | – | –
Cc1cs/c(=N\C(P(=O)(O)O)P(=O)(O)O)n1C | > 100 µM | > 100 µM | > 100 µM | > 100 µM | > 100 µM | > 100 µM | > 100 µM | > 100 µM | > 100 µM | > 100 µM | – | – | – | – | – | –
CCCCCCCCCCCCOC1C(COCCN2CCCC2)OC2OC(C)(C)OC21 (centres undefined) | 3.12 µM | 4.44 µM | 2.7 µM | 3.48 µM | 3.17 µM | 2.91 µM | 3.13 µM | 3.1 µM | 2.76 µM | 10.2 µM | – | – | – | – | – | –
CCOC(=O)C1C/C(C)=C(/C)SCCCS1 (centres undefined) | > 100 µM | > 100 µM | > 100 µM | > 100 µM | > 100 µM | > 100 µM | > 100 µM | > 100 µM | > 100 µM | > 100 µM | – | – | – | – | – | –
O=[N+]([O-])c1ccc2nc3ccc([N+](=O)[O-])cn3c2c1 | > 100 µM | > 100 µM | > 100 µM | > 100 µM | > 100 µM | > 100 µM | > 100 µM | > 100 µM | > 100 µM | > 100 µM | – | – | – | – | – | –
O=C1CSC2(CC(/C=C/C=C/c3ccccc3)=NN2c2cccc(S(=O)(=O)O)c2)N1c1nc2ccccc2s1 (centres undefined) | > 100 µM | – | > 100 µM | > 100 µM | > 100 µM | 60.1 µM | > 100 µM | > 100 µM | > 100 µM | > 100 µM | – | – | – | – | – | –
CCOC(=O)/C=C1\Nc2ccccc2C12CCc1c([nH]c3ccccc13)C2C(=O)OCC (centres undefined) | > 100 µM | > 100 µM | > 100 µM | > 100 µM | > 100 µM | > 100 µM | > 100 µM | > 100 µM | 81 µM | > 100 µM | – | – | – | – | – | –
COc1ccc(C2CC(c3c(C)nn(-c4ccccc4)c3-c3ccc(C)cc3O)=NN2c2ccccc2)cc1 (centres undefined) | > 100 µM | > 100 µM | > 100 µM | > 30.3 µM | > 100 µM | > 100 µM | > 100 µM | > 100 µM | > 100 µM | > 100 µM | – | – | – | – | – | –
[N-]=[N+]=NC1(c2ccccc2)C(=O)Nc2ccccc2C1=O (centres undefined) | > 100 µM | > 100 µM | > 100 µM | > 100 µM | 75.9 µM | > 100 µM | > 100 µM | > 100 µM | > 100 µM | > 100 µM | – | – | – | – | – | –
CCCCCCCCCCCCCCCCP(=O)(O)OP(=O)(O)OCC1OC(n2ccc(N)nc2=O)C(O)C1O (centres undefined) | > 100 µM | > 100 µM | > 100 µM | > 100 µM | > 100 µM and 41.1 µM | 23.7 µM | > 100 µM and 37.4 µM | > 100 µM | > 100 µM | > 100 µM | 83.3 µM and 41.4 µM | 70.5 µM and 16.1 µM | > 100 µM and 13.9 µM | 62.6 µM and 19.8 µM | > 100 µM and 11.4 µM | > 100 µM and 40.4 µM
CC(C)=CC(=O)O[C@@H]1CC(C)(C)CC2C3=CCC4[C@]56CC[C@](O)(OC5)C(C)(C)C6CC[C@@]4(C)C3(C)CC[C@]21C(=O)O (some centres undefined) | > 100 µM | > 100 µM | > 100 µM | 89.4 µM | > 100 µM | > 100 µM | > 100 µM | > 100 µM | > 100 µM | > 100 µM | – | – | – | – | – | –
c1ccc2c(c1)CC1c3[nH]c4ccccc4c3CCN21 (centres undefined) | > 10 µM | > 10 µM | > 10 µM | > 10 µM | > 10 µM | > 10 µM | > 10 µM | > 10 µM | > 10 µM | > 10 µM | – | – | – | – | – | –
C=C(CCOC)CCC1CCCCC(=C)C1=O (centres undefined) | > 100 µM | > 100 µM | > 100 µM | > 100 µM | > 100 µM | > 100 µM | > 100 µM | > 100 µM | > 100 µM | > 100 µM | – | – | – | – | – | –
